Reference: paper PMC6349854, “GLUT1 and GLUT3 involvement in anthocyanin gastric transport- Nanobased targeted approach” (Scientific Reports, 2019)

Tests used:
MKN-28 cells = experiment: Transepithelial transport of anthocyanins through MKN-28 gastric barrier (apical to basolateral); assay type: in vitro ADME, human; settings: for paracellular transport efficiency: 4 °C; for paracellular transport efficiency / transport efficiency at 180 minutes: apical pH 5.0, basolateral pH 7.4, anthocyanin 500 µM; for transport efficiency at 180 minutes: 37 °C
Protocol: (§1) Transepithelial transport experiments were performed using a similar procedure from the one described elsewhere. […] Cells were cultured at 37 °C in an atmosphere of 5% CO2 and the medium was changed every two days.
(§2) After this treatment, media was removed and cells were washed with Hanks’ medium (HBSS), pH 7.4 at the basolateral side and with HBSS pH 5.0 at the apical side. Anthocyanin solution (500 µM) in HBSS pH 5.0 was added to the apical side of the cells and HBSS containing 2% fetal bovine serum free of polyphenols was added to the basolateral compartment. Transepithelial transport was followed as a function of time, at 4 °C and 37 °C. Samples were taken from the basolateral side and replaced by fresh medium. The samples (150 µL) were acidified with HCl 6 M to a final concentration of 1% and frozen at −18 °C until HPLC analysis.

[1] = tested on: Mv3glc transport through MKN-28 barrier; experiment: Effect of transporter inhibitors on anthocyanin transport through MKN-28 barrier; assay type: cell-based, human
Protocol: as §1, §2

Structure (SMILES)	paracellular transport efficiency (MKN-28 cells)	transport efficiency at 180 minutes (MKN-28 cells; 180 min)	further results
COc1cc(-c2[o+]c3cc(O)cc(O)c3cc2O[C@@H]2O[C@H](CO)[C@@H](O)[C@H](O)[C@H]2O)cc(OC)c1O [Mv3glc, Malvidin-3-O-glucoside]	below 2%	~ 10%	inhibitory effect on transport when both transporters inhibited simultaneously (MKN-28 cells; GLUT1 and GLUT3 silenced together (AuNP@GLUT1 + 3), 24 h + 24 h): much more pronounced and additive; relative reduction of transport (MKN-28 cells; after silencing of GLUT1 or GLUT3 by nanoconjugates 24 h + 24 h, 180 min, versus respective control (AuNP@PEG)): around 25%
COc1cc(-c2[o+]c3cc(O)cc(O)c3cc2O[C@@H]2O[C@H](CO)[C@@H](O)[C@H](O)[C@H]2O)ccc1O [Pn3glc, Peonidin-3-O-glucoside]	below 2%	~ 10%	
CCCN(CCC)S(=O)(=O)c1ccc(C(=O)O)cc1 [Probenecid]			effect on Mv3glc transport ([1]; inhibitor 50 µM, apical pH 5.0, basolateral pH 7.4): no effect
C=C1[C@@H](C)[C@H]2[C@H](Cc3ccccc3)NC(=O)[C@]23OC(=O)/C=C/[C@H](O)CCC[C@@H](C)C/C=C/[C@H]3[C@@H]1O [cytochalasin B]			inhibitory effect on anthocyanin transport ([1]; cytochalasin B 50 µM added simultaneously with AuNP@GLUT1 + 3): inhibitory effect was higher
